Source: patent US9802942B2, “Substituted 4-methyl-pyrrolo[1,2-A]pyrimidine-8-carboxamide compounds and uses thereof for modulating glucocerebrosidase activity” (Northwestern University, priority 2015, dated 2017)
Read-outs that look alike come from different tables or passages of the source.

Key:
[1] = target: T1, glucocerebrosidase (GCase), recombinant wt. enzyme velaglucerase alfa (Homo sapiens, UniProt P04062); assay: Glucocerebrosidase activity assay with blue substrate (4MU-Glc); assay type: biochemical
T1 construct: purchased Shire Human Genetic Therapies, Inc. Vpriv
T1 sequence (P04062 40-536): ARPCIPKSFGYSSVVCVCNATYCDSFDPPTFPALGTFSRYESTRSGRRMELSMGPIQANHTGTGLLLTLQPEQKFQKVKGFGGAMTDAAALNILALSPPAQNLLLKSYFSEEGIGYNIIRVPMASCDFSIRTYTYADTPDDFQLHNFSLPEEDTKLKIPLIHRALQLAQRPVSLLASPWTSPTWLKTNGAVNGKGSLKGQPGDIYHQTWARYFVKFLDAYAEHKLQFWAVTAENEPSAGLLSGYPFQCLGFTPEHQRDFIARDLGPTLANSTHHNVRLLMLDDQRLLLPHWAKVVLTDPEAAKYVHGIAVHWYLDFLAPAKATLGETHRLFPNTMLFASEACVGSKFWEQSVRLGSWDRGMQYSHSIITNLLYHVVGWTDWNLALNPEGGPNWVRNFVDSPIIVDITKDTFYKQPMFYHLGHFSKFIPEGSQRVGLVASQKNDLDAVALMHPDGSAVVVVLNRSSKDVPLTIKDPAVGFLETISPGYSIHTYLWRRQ
Description: (§1) The compounds in DMSO solution 0.5 μL/well were transferred to a black 96-well plate (the final titration was 24 nM to 50 μM, 12 concentrations, 2 times dilution). 33.5 μL enzyme solution (7.5 nM final concentration) was transferred to the wells. After 5 min of incubation at room temperature, the enzyme reaction was initiated by the addition of 33 μL/well blue substrate or 66.5 μL/well red substrate. Final concentrations of the blue substrate (4MU-Glc) and red substrate (Res-Glc) were 1.5 mM and 30 μM, respectively. The red substrate reaction was measured in the Biotek Synergy H1 multi-mode plate reader with Ex=573 nm and Em=610 nm at 37° C. every 20 sec for 30 min. The blue substrate reaction was terminated by the addition of 33 μL/well stop solution (1 M NaOH and 1 M glycine mixture, pH 10) after 30 min of incubation at 37° C. The fluorescence was then measured in the plate reader at Ex=365 nm and Em=440 nm.
The recombinant wt. enzyme velaglucerase alfa (Vpriv®, Shire Human Genetic Therapies, Inc.) was obtained from residual solution after clinical infusions. The GCase activity assay buffer was composed of 50 mM citric acid, 176 mM K2HPO4, and 0.01% Tween-20 at pH 5.9. A solution of 1 M sodium hydroxide and 1 M glycine was used as the stop solution for the 4MU-β-glc substrate assay.
The compounds in DMSO solution 0.5 μL/well was transferred to a black 96-well plate (the final titration was 24 nM to 50 μM, 12 concentrations). 33.5 μL enzyme solution (7.5 nM final concentration) was transferred to the wells. After 5 min of incubation at room temperature, the enzyme reaction was initiated by the addition of 33 μL/well 4MU-Glc substrate or 66.5 μL/well red substrate. Final concentrations of the 4MU-Glc substrate and Res-Glc substrate were 1.5 mM and 30 μM, respectively. The red substrate reaction was measured in the Biotek Synergy H1 multi-mode plate reader with Ex=573 nm and Em=610 nm at 37° C. in every 20 seconds for 30 min. The 4MU-Glc substrate reaction was terminated by the addition of 33 μL/well stop solution (1 M NaOH and 1 M glycine mixture, pH 10) after 30 min of incubation at 37° C. The fluorescence was then measured in the plate reader with Ex=365 nm and Em=440 nm.

[2] = target: T1, glucocerebrosidase (GCase), recombinant wt. enzyme velaglucerase alfa; assay: Glucocerebrosidase activity assay with red substrate (Res-β-glc); assay type: biochemical; conditions: red substrate enzyme activity assay
Description: as §1, with “nm. […]” for “nm.”
The compounds in DMSO solution 0.5 μL/well was transferred to a black 96-well plate (the final titration was 24 nM to 50 μM, 12 concentrations). […] The red substrate reaction was measured in the Biotek Synergy H1 multi-mode plate reader with Ex=573 nm and Em=610 nm at 37° C. in every 20 seconds for 30 min. […] The fluorescence was then measured in the plate reader with Ex=365 nm and Em=440 nm.

[3] = target: T2, recombinant wild type GCase (Homo sapiens, UniProt P04062); assay: Covalent binding assay: activity of GCase activated by probe 4; assay type: biochemical; conditions: for enzyme activity comparing to the wt. GCase: covalent activation
T2 construct: purchased Shire Human Genetic Therapies, Inc. Vpriv
T2 sequence (P04062 40-536): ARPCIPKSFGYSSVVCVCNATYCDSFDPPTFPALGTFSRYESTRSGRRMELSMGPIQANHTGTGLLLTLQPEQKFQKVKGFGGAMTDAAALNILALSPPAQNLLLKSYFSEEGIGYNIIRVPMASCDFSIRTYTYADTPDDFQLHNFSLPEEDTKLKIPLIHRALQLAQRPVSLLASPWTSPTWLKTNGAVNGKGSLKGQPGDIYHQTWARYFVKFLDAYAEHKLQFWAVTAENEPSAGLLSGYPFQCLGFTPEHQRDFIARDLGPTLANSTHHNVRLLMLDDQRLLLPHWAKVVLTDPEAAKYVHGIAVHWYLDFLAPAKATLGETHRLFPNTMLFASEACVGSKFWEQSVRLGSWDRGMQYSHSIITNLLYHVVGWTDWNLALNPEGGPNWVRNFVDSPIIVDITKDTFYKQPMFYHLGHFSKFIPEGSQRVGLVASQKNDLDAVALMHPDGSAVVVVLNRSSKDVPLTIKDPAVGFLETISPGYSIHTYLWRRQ
Description: To the recombinant wild type enzyme (22 μM, 95 μL, 1 equiv) in 0.1 M phosphate buffer (pH 7.2) was added 2,5-dioxopyrrolidin-1-yl 3-(2-(2-(4-(4-(2,4-dimethylpyrrolo[1,2-a]pyrimidine-8-carboxamido)phenyl)-1H-1,2,3-triazol-1-yl)ethoxy)ethoxy)propanoate (4) in DMSO (0.89 mM, 5 μL, 2 equiv) in one portion, and was vortexed for 5 sec immediately. At indicated time points, the reaction solution (2 μL) was sampled and diluted (1:3125 dilution) into the assay buffer (50 mM citric acid, 176 mM K2HPO4, and 0.01% Tween-20 at pH 5.9). After 2 h the reaction solution was dialyzed three times with 0.1 M phosphate buffer (pH 7.2). The enzyme was adjusted to the same concentration and sampled for activity. The dilution solutions were assayed with three substrates, resorufin substrate, 4-MU substrate, and natural substrate using the method in Example 5 and Example 6 without adding compounds.
The probe 4 was subjected to the covalent binding assay against GCase. The reaction conditions, including the buffer pH value, the concentration of the protein and probe, and the reaction temperature were carefully adjusted to achieve the maximum activation. With the optimized reaction condition, the enzyme activity was activated in a time-dependent manner (FIG. 5). The enzyme could be activated by probe 4 with around 22 and 28 folds activity comparing to the wt. GCase in the 4MU-Glc substrate (FIG. 5A) and red substrate (FIG. 5B) enzyme activity assay respectively.

[4] = Enzyme stability assay in pH 4.7 buffer; assay type: physicochemical; conditions: citrate/phosphate buffer pH 4.7, day 4
From the text: To test whether probe 4 changed the enzyme stability of GCase, we used two environments for GCase activity stability assay (Tekoah, Tzaban et al. 2013). The first one was citrate/phosphorylate buffer, which was at pH 4.7. In this condition, the wt. GCase only had about 15% activity left on day 4 (FIGS. 6A and 6B), which is similar to the previous research (Tekoah, Tzaban et al. 2013). An interesting finding was that even on day 10, activated GCase still had more than 20% activity left. […] One possible reason for the higher enzyme activity in low pH buffer was that activated GCase was stabilized by the covalent compound, and was more difficult to unfold.

[5] = test system: U937 macrophage cells; assay: U937 macrophage uptake assay; assay type: cell-based, human; conditions: PMA-induced U937 cells, 4MU-β-glc substrate
Description: Human monocyte cell line U937 was optimally differentiated into macrophages by the addition of 75 ng/ml PMA (Brumshtein, Salinas et al. 2010) to the monocyte culture for 3 days (in 75 cm^2 flasks). Macrophages were enriched by adhesion to the culture plate and identified by morphology and receptor staining.
The assay was carried out according to the reported method (Tekoah, Tzaban et al. 2013) with slight modification. The enzyme was treated with compound 4 or DMSO at pH 7.2 for 60 min as described above, then dialyzed with PBS. U937 cells, after differentiation (˜1.6*10^6 cells), were incubated with 60 μg/ml of the activated enzymes and wt. enzyme in F12K medium for 10 min at 5% CO2, 37° C. incubator. The cells were then washed twice with ice cold PBS enriched with Mannan (1 mg/ml). To further ensure release of any proteins bound non-specifically to the membrane half of the cells were washed with ice cold glycine buffer: (0.8% NaCl, 0.038% KCl, 0.01% MgCl2, 0.01% CaCl2, 0.7% glycine [pH 3]) followed by two additional cold PBS washes. The other half of the wells were used as controls for measuring total enzymatic activity (bound and internalized enzyme). The cells were lysed by adding β-glucocerebrosidase activity buffer (60 mM phosphate-citrate buffer; 0.15% Triton X-100; 0.125% sodium taurocholate, pH 5.5), followed by pipetting and one freeze/thaw cycle. The obtained lysates were subjected to determination of enzymatic activity using the colorimetric method detailed above. The total enzymatic activity was normalized to total soluble proteins as measured by Bradford assay. The effective uptake was calculated as the percentage of activity within the cells out of the total enzymatic activity of the controls.

[6] = Table 2, values marked activator, read-out: Activity AC50 or IC50

Row | Molecule | activator (word in Activity cell) ([1]; Table 2) | AC50 [1, 6] | also measured
1 | Cc1cc(C)n2ccc(C(=O)Nc3ccc(-c4cn(CCOCCOCCC(=O)ON5C(=O)CCC5=O)nn4)cc3)c2n1 [No. 2, 2,5-Dioxopyrrolidin-1-yl 3-(2-(2-(4-(4-(2,4-dimethylpyrrolo[1,2-a]pyrimidine-8-carboxamido)phenyl)-1H-1,2,3-triazol-1-yl)ethoxy)ethoxy)propanoate] | – | – | maximum activity / activation activity ([1]; 4MU-Glc substrate enzyme activity assay): 20 folds; activation activity, red substrate [2]: 10 folds; enzyme activity comparing to the wt. GCase ([3]; 4MU-Glc substrate): around 22 folds; enzyme activity comparing to the wt. GCase ([3]; red substrate): ~28 folds; enzyme activity followed by dialysis ([3]; three substrate assays, in words): not decreased significantly
2 | Cc1cc(C)n2ccc(C(=O)Nc3ccc(-c4cn(CCOCCOCCC(=O)NC5CCC5)nn4)cc3)c2n1 [compound 70] | – | – | AC50 ([1]; Table 1, titration 24 nM to 50 μM, substrate not given, read-out: Ac50): 3550 nM
3 | Cc1cc(C)n2ccc(C(=O)Nc3ccc(-c4cn(CCOCCOCCC(=O)NCCOCCOCCOCCNC(=O)CCOCCOCCn5cc(-c6ccc(NC(=O)c7ccn8c(C)cc(C)nc78)cc6)nn5)nn4)cc3)c2n1 [compound 71] | activator | 1260 nM | –
4 | Cc1cc(C)n2ccc(C(=O)NCc3cccnc3Oc3ccccc3)c2n1 [compound 72] | activator | 6130 nM | –
5 | Cc1cc(C)n2ccc(C(=O)Nc3ccc(I)cc3)c2n1 [compound 73] | activator | 316 nM | –
6 | COC(=O)CCCCCCCCC#Cc1ccc(NC(=O)c2ccn3c(C)cc(C)nc23)cc1 [compound 74] | activator | 710 nM | –
7 | Cc1cc(C)n2ccc(C(=O)Nc3ccc(C#CCCCCCCC#Cc4ccc(N)cc4)cc3)c2n1 [compound 75] | activator | 1260 nM | –
8 | Cc1cc(C)n2ccc(C(=O)Nc3ccc(C#CCCCCCCC#Cc4ccc(NC(=O)c5ccn6c(C)cc(C)nc56)cc4)cc3)c2n1 [compound 76] | activator | 28200 nM | –
9 | COC(=O)CCCCCCCCC#Cc1ccc(NC(=O)c2ccn3c(C)cc(-c4cccnc4)nc23)cc1 [compound 78] | activator | 710 nM | –
10 | Cc1cc(-c2cccnc2)nc2c(C(=O)Nc3ccc(C#CCCCCCCCCC(=O)O)cc3)ccn12 [compound 79] | activator | 3540 nM | –
11 | COC(=O)CCCC#Cc1cccc(NC(=O)c2ccn3c(C)cc(C)nc23)c1 [compound 80] | activator | – | –
12 | COC(=O)CCCCCc1cccc(NC(=O)c2ccn3c(C)cc(C)nc23)c1 [compound 81] | activator | 1780 nM | –
13 | Cc1cc(C)n2ccc(C(=O)Nc3ccc(C#CCCCCCCCCC(=O)ON4C(=O)CCC4=O)cc3)c2n1 [compound 82] | activator | 800 nM | –
14 | Cc1cc(-c2cccnc2)nc2c(C(=O)Nc3ccc(C#CCCCCCCCCC(=O)ON4C(=O)CCC4=O)cc3)ccn12 [compound 83] | activator | 560 nM | –
15 | wt. GCase: recombinant wt. enzyme velaglucerase alfa (Vpriv, Shire Human Genetic Therapies, Inc.) (protein, UniProt P04062 40-536, looked up, velaglucerase alfa) Lysosomal acid …: ARPCIPKSFGYSSVVCVCNATYCDSFDPPTFPALGTFSRYESTRSGRRMELSMGPIQANHTGTGLLLTLQPEQKFQKVKGFGGAMTDAAALNILALSPPAQNLLLKSYFSEEGIGYNIIRVPMASCDFSIRTYTYADTPDDFQLHNFSLPEEDTKLKIPLIHRALQLAQRPVSLLASPWTSPTWLKTNGAVNGKGSLKGQPGDIYHQTWARYFVKFLDAYAEHKLQFWAVTAENEPSAGLLSGYPFQCLGFTPEHQRDFIARDLGPTLANSTHHNVRLLMLDDQRLLLPHWAKVVLTDPEAAKYVHGIAVHWYLDFLAPAKATLGETHRLFPNTMLFASEACVGSKFWEQSVRLGSWDRGMQYSHSIITNLLYHVVGWTDWNLALNPEGGPNWVRNFVDSPIIVDITKDTFYKQPMFYHLGHFSKFIPEGSQRVGLVASQKNDLDAVALMHPDGSAVVVVLNRSSKDVPLTIKDPAVGFLETISPGYSIHTYLWRRQ | – | – | activity left [4]: about 15%; activity compared to endogenous GC [5]: about 3 folds
